Test results: US20100120679A1, “Targeting NBS1-ATM Interaction To Sensitize Cancer Cells To Radiotherapy And Chemotherapy” (SOUTHERN RESEARCH INSTITUTE, priority 2006, published 2010)
Peptide text beside a SMILES is read from it. * marks the point of attachment. Biotin = O=C1N[C@H]2[C@H](CS[C@H]2CCCCC(=O)*)N1

Key:
NBS1-ATM interaction = target: T1, NBS1-ATM interaction (Homo sapiens, UniProt Q13315); experiment: Co-immunoprecipitation of ATM with NBS1 in peptide-treated cells; assay type: cell-based
T1 construct: endogenous in cells; host or cells: HeLa
Procedure: (§1) HeLa cells treated with the NIP peptides were irradiated (0 or 6Gy). Immunoprecipitation was performed with a rabbit NBS1 antibody, and Western blotting was performed with monoclonal antibodies against ATM, NBS1 or MRE11.
(§2) Immunoprecipitation and Western blotting: For co-immunoprecipitation of ATM, NBS1 and MRE11, cells were lysed 1 hour in ice-cold lysis buffer, which consisted of 10 mM Tris-HCl (pH 7.5), 100 mM NaCl, 5 mM EDTA, 0.5% NP-40, 5 mM Na3VO4, 1 mM NaF, and 1 mM PMSF. After centrifugation, supernatants were incubated with indicated antibodies. After extensive washing with the lysis buffer, immunoprecipitates were analyzed by immunoblot using specific antibodies. For western blotting analysis, samples (cell lysates or immunoprecipitates) were separated on 4-12% SDS-poly-acrylamide gels, transferred to nitrocellulose membranes, and probed with various antibodies.
(§3) wtNIP Abrogated the NBS1-ATM Interaction: To investigate whether R9-conjugated NIP peptides could inhibit NBS1-ATM interactions, coimmunoprecipitation experiments were performed in cells treated with the NIP peptides. Four hours after peptide treatment, HeLa cells were harvested and subjected to immunoprecipitation using an anti-NBS1 antibody. The immunoprecipitates were then blotted with anti-ATM, NBS1, and MRE11 antibodies.

[1] = tested on: NBS1 phosphorylation on serine 343 in DU-145 cells; experiment: IR-induced NBS1 pSer343 focus formation, DU-145; assay type: cell-based, human; settings: DU-145, 10 μM peptide, 6Gy, 120 minutes
From the text: (§4) Error bars represent +/−1 SD, graphed are the mean of three independent experiments.
(§5) To further support the idea that wtNIP can inhibit ATM-mediated DNA damage pathways, IR-induced NBS1 focus formation, an event considered to be an ATM-dependent process at the sites of DSBs (Lim et al., 2000) was investigated. NBS1 foci are a result of ATM-mediated NBS1 phosphorylation on serine 343. […] The average number of foci in mock-irradiated HeLa cells was 6, 8, and 6 for R9, wtNIP, and scNIP, respectively.

[2] = tested on: GM9607 cells (defective ATM); experiment: Colony formation assay (radiosensitivity), GM9607; assay type: cell-based, human
Procedure: (§6) Colony number was determined with a dissecting microscope. […] The following formula was used: […]
(§7) To test this possibility, colonyforming assays were performed in cell lines with defective ATM (GM9607) or DNA-PKcs (M059J). […] Because GM9607 cells are ATM-deficient and have functional ATR and DNA-PKcs, these observations strongly indicate that wtNIP can specifically target ATM, but not ATR or DNA-PKcs, to achieve radiosensitization.

NBS1 binding to MRE11 = target: T2, NBS1 binding to MRE11 (Homo sapiens, UniProt P49959); experiment: Co-immunoprecipitation of MRE11 with NBS1 in peptide-treated cells; assay type: cell-based; settings: HeLa cells, four hours after peptide treatment
T2 construct: endogenous in cells; host or cells: HeLa
T2 sequence (P49959 1-708): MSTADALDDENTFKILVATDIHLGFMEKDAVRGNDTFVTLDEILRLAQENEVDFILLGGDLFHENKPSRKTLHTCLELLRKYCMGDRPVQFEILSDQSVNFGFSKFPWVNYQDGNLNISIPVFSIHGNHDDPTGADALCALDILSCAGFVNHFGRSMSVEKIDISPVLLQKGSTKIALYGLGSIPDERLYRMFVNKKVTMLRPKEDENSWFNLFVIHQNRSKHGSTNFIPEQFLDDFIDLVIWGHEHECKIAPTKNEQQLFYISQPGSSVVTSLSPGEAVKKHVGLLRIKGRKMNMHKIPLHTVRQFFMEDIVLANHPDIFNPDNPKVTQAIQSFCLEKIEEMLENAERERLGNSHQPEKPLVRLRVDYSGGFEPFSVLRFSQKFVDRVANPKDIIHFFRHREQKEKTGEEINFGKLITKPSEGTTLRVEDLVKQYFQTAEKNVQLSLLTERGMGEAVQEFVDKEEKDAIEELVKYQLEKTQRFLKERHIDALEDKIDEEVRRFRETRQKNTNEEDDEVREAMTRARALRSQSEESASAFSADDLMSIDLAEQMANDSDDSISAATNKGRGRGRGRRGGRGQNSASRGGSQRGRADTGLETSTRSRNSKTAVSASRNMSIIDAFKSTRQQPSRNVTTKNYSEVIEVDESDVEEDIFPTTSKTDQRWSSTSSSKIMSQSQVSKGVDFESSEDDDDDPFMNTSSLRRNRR
Procedure: as §1, §2, §3

[3] = tested on: M059J cells (defective DNA-PKcs); experiment: Colony formation assay (radiosensitivity), M059J; assay type: cell-based
Procedure: as §6, §7

[4] = tested on: γ-H2AX foci in DU-145 cells; experiment: IR-induced γ-H2AX focus formation, DU-145; assay type: cell-based, human; settings: 10 μM peptide, 6Gy
From the text: as §4
(§8) wtNIP Inhibits IR-Induced γ-H2AX and NBS1 pSer343 Focus Formation: One of the earliest responses to IR-induced DNA damage is the formation of γ-H2AX foci, which requires functional ATM (Burma et al., 2001; Furuta et al., 2003). […] Immunofluorescence microscopy was used to detect the presence of γ-H2AX foci in mock-irradiated or irradiated cells in the presence of R9, wtNIP or scNIP. […] Therefore, IR-induced γ-H2AX focus formation can be inhibited by wt-NIP.

[5] = tested on: NBS1 phosphorylation on serine 343 in HeLa cells; experiment: IR-induced NBS1 pSer343 focus formation, HeLa; assay type: cell-based, human
From the text: as §4, §5

[6] = tested on: γ-H2AX foci in HeLa cells; experiment: IR-induced γ-H2AX focus formation, HeLa; assay type: cell-based, human
From the text: as §4, §8

T1 sequence (Q13315 whole entry): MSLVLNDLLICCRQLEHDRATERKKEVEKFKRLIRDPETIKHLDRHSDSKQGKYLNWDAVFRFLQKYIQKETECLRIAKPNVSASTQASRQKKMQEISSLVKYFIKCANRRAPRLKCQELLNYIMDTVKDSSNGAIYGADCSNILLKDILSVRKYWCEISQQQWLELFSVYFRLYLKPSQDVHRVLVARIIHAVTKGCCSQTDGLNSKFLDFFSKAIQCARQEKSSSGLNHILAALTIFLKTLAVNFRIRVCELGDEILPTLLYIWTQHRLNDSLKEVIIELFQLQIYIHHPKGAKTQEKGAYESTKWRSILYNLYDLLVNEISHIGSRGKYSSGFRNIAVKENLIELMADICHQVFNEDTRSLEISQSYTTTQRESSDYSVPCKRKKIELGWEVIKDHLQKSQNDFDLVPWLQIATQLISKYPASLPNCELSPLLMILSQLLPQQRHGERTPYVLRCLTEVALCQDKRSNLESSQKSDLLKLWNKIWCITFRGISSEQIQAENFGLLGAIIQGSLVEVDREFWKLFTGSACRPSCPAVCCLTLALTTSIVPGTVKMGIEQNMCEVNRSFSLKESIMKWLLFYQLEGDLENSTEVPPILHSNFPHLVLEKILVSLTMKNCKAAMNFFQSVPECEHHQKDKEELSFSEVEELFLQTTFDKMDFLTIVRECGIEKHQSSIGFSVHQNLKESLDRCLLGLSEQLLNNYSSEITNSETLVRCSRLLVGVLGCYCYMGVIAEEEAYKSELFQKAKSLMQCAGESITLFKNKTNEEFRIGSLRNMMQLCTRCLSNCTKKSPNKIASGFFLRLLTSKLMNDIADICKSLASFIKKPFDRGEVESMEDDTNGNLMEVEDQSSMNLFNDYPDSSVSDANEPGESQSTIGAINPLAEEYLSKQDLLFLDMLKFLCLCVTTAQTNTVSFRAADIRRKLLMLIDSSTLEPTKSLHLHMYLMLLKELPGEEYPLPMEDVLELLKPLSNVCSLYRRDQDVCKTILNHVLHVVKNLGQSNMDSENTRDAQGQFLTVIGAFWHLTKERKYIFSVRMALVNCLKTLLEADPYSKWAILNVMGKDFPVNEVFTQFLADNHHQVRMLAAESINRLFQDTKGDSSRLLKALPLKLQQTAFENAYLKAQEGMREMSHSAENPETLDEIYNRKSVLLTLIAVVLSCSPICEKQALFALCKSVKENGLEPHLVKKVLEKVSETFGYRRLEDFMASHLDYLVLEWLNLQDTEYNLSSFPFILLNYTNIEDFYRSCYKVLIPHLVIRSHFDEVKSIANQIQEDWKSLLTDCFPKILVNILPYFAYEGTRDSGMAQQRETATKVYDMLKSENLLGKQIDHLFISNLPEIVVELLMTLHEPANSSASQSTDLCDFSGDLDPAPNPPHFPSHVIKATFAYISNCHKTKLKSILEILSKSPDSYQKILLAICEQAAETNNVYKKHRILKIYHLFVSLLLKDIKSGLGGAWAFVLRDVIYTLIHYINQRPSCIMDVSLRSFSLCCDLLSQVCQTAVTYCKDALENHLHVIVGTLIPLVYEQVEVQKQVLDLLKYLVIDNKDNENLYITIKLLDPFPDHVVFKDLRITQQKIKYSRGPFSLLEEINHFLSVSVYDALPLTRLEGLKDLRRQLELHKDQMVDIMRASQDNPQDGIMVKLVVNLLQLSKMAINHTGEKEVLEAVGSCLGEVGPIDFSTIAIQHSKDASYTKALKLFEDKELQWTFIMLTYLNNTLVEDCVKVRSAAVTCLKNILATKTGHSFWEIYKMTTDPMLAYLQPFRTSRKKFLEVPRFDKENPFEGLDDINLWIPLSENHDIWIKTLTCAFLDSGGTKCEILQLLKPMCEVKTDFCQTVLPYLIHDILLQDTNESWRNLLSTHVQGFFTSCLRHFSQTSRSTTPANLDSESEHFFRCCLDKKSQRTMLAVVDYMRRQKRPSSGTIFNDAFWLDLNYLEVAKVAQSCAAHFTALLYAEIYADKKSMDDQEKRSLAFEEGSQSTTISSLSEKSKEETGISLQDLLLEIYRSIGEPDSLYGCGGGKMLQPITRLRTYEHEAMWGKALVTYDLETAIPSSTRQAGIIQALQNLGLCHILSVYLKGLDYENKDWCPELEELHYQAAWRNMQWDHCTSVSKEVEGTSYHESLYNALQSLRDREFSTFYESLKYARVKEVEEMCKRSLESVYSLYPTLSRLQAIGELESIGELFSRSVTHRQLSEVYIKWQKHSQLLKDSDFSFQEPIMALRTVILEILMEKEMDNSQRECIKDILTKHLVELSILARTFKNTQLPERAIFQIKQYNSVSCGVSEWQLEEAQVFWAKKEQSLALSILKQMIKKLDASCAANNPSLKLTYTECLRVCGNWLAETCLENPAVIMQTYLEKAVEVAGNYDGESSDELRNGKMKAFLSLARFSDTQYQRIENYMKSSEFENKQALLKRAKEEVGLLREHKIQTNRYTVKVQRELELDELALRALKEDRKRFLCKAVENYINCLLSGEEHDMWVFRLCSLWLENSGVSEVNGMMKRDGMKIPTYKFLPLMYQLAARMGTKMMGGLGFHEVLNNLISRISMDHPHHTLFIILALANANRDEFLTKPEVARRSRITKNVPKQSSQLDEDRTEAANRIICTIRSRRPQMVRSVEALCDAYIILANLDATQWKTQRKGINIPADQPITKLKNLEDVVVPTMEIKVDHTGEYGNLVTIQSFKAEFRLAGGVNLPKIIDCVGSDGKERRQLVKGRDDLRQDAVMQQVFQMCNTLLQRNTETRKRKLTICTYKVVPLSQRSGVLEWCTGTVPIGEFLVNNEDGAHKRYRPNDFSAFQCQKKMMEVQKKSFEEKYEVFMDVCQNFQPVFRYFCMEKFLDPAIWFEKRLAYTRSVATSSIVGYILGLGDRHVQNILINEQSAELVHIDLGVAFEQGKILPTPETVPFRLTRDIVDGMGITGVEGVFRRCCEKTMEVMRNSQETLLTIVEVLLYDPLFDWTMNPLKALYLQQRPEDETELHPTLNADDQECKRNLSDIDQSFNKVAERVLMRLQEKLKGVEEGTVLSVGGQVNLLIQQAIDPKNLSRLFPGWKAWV

## CC(C)C[C@H](NC(=O)[C@H](CC(=O)O)NC(=O)[C@H](CC(=O)O)NC(=O)[C@H](C)NC(=O)[C@H](CC(C)C)NC(=O)[C@H](CO)NC(=O)[C@H](CCC(=O)O)NC(=O)[C@H](CCC(=O)O)NC(=O)[C@H](CCCCN)NC(=O)[C@H](CCCNC(=N)N)NC(=O)[C@H](CCCNC(=N)N)NC(=O)[C@H](CCCNC(=N)N)NC(=O)[C@H](CCCNC(=N)N)NC(=O)[C@H](CCCNC(=N)N)NC(=O)[C@H](CCCNC(=N)N)NC(=O)[C@H](CCCNC(=N)N)NC(=O)[C@H](CCCNC(=N)N)NC(=O)[C@H](CCCNC(=N)N)NC(=O)CCCC[C@@H]1SC[C@@H]2NC(=O)N[C@@H]21)C(=O)O [wtNIP] (Biotin-RRRRRRRRRKEESLADDL-OH)
NBS1-ATM interaction; HeLa cells treated with IR
  ATM-NBS1 association (anti-NBS1 immunoprecipitation, anti-ATM blot): effect similar to that in unirradiated cells
NBS1-ATM interaction; HeLa cells, four hours after peptide treatment, unirradiated
  ATM-NBS1 association (anti-NBS1 immunoprecipitation, anti-ATM blot): NBS1 was no longer able to bring down ATM
[1]
  IR-induced NBS1 phosphorylation: abrogates IR-induced NBS1 phosphorylation
[2]
  change in radiosensitivity: no change in radiosensitivity
NBS1 binding to MRE11
  NBS1 binding to MRE11: did not interfere with NBS1 binding to MRE11
[3]
  SER: 1.83
  change in radiosensitivity: increase in radiosensitivity
[4]
  IR-induced γ-H2AX focus formation: significantly reduced H2AX foci/nucleus
[5]; HeLa cells after treatment with 6-Gy IR
  NBS1 pSer343 foci per nucleus: 6 foci per nucleus
[5]; compared with R9 or scNIP treated cells
  NBS1 phosphorylation (anti-phospho-Ser343 NBS1 antibody): significantly inhibited
[5]; mock-irradiated HeLa cells
  average number of NBS1 pSer343 foci: 8
[6]; 10 μM peptide, 30 minutes after 6Gy IR
  average number of γ-H2AX foci/nucleus: 6.9 foci/nucleus
[6]; 30 minutes after treatment with 6Gy IR
  inhibition of γ-H2AX foci formation: can inhibit γ-H2AX foci formation
